Columns and labels:
CYP26A (P450RAI-1) = target: T1, CYP26A (P450RAI-1) (Homo sapiens, UniProt O43174); test: Cell-based inhibition of RA metabolism in CYP26A stably transfected HeLa cells; details: stably transfected HeLa cells, [3H]-RA, 3 hours at 37° C.; read-out: P450RAI-1 Whole cell IC50
T1 construct: expressed in transfected cells; host or cells: HeLa
T1 sequence (O43174 1-497): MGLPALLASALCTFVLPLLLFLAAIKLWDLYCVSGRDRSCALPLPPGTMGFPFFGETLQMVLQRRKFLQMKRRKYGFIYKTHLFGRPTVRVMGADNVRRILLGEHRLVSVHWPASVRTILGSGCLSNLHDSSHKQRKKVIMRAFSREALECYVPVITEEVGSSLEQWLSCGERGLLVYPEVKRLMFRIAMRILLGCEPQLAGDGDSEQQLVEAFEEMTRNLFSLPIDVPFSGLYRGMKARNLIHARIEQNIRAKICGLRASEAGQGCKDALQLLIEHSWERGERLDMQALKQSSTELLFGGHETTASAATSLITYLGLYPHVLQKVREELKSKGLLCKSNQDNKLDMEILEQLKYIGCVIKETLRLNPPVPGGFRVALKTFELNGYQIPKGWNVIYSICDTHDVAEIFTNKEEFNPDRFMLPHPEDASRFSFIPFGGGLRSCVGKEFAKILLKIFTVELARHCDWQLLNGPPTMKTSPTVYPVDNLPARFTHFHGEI
Outline: (§1)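 Stably transfected HeLa cells (5×10^5/well) in MEM with 10% FBS and 0.05 μCi [3H]-RA, compounds at 10, 1 or 0.1 μM final, 3 h at 37° C. Retinoids extracted by modified Bligh-Dyer (methylene chloride); aqueous radioactivity counted; ID50 for 50% inhibition of RA metabolism derived from log-transformed data.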

RAR α [1] = target: T2, RAR α (Homo sapiens, UniProt P10276); test: RAR α Kd; type: binding; details: last item of cell EC50/(EFFICACY)/Kd
T2 sequence (P10276 1-462): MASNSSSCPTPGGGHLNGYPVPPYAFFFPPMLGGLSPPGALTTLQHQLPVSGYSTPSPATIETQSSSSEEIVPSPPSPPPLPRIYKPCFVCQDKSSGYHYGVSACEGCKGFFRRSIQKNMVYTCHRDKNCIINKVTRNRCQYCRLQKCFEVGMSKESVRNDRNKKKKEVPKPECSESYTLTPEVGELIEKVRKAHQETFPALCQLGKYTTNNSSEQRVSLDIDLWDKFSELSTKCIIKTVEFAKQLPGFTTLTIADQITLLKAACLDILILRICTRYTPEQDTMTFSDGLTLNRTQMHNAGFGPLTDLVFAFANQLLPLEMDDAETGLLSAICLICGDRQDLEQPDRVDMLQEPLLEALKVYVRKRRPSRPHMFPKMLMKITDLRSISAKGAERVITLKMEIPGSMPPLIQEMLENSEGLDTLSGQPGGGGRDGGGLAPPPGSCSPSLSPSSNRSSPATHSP

RAR β [2] = target: T3, RAR β (Homo sapiens, UniProt P10826); test: RAR β EC50/(efficacy); type: cell-based; details: for RAR β (EFFICACY): value in brackets of cell EC50/(EFFICACY)/Kd; for EC50: first item of cell EC50/(EFFICACY)/Kd
T3 sequence (P10826 1-455): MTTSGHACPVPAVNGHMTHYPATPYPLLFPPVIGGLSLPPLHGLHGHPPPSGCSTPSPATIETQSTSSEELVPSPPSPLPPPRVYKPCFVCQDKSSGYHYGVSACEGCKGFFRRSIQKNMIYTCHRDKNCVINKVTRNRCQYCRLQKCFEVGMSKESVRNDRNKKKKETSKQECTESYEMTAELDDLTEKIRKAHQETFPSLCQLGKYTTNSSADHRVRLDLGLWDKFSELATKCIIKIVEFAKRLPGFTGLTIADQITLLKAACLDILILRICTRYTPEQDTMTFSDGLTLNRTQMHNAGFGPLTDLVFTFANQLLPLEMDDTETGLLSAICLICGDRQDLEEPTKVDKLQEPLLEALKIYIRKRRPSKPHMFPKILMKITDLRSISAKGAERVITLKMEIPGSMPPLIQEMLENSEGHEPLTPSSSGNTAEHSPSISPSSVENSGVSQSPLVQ

RAR α [3] = target: T2, RAR α; test: RAR α EC50/(efficacy); type: cell-based; details: for RAR α (EFFICACY): value in brackets of cell EC50/(EFFICACY)/Kd; for EC50: first item of cell EC50/(EFFICACY)/Kd
CYP26B (P450RAI-2) = target: T4, CYP26B (P450RAI-2) (Homo sapiens, UniProt Q9NR63); test: Cell-based inhibition of RA metabolism in CYP26B stably transfected HeLa cells; details: stably transfected HeLa cells, [3H]-RA, 3 hours at 37° C.; read-out: P450RAI-2 Whole cell IC50
T4 construct: expressed in transfected cells; host or cells: HeLa
T4 sequence (Q9NR63 1-512): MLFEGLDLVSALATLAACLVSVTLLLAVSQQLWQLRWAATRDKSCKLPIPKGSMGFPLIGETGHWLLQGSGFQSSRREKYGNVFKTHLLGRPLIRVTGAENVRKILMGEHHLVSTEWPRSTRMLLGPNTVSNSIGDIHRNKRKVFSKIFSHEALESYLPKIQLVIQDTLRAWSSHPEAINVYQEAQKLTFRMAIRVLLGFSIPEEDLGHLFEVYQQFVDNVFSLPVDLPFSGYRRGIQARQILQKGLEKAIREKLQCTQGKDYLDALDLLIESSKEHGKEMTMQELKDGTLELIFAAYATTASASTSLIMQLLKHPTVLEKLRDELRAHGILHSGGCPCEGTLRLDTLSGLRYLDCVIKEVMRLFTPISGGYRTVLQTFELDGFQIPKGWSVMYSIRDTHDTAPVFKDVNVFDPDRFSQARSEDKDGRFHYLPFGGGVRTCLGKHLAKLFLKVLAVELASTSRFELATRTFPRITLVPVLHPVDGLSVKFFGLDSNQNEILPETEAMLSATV
Outline: as §1

RAR β [4] = target: T3, RAR β; test: RAR β Kd; type: binding; details: last item of cell EC50/(EFFICACY)/Kd
RAR γ [5] = target: T5, RAR γ (Homo sapiens, UniProt P13631); test: RAR γ Kd; type: binding; details: last item of cell EC50/(EFFICACY)/Kd
T5 sequence (P13631 1-454): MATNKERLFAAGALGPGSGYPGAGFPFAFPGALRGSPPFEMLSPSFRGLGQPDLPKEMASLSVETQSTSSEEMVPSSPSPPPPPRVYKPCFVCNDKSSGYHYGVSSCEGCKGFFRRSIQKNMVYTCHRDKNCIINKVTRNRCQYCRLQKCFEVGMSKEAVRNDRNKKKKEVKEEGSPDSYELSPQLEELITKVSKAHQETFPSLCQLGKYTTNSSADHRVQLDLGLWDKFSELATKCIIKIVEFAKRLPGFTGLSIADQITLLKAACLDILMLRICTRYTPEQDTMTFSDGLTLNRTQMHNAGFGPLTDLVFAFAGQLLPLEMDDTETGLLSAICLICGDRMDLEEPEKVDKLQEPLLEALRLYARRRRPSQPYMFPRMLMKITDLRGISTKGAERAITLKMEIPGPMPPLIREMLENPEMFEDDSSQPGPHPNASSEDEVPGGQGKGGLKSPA

RAR γ [6] = target: T5, RAR γ; test: RAR γ EC50/(efficacy); type: cell-based; details: for RAR γ (EFFICACY): value in brackets of cell EC50/(EFFICACY)/Kd; for EC50: first item of cell EC50/(EFFICACY)/Kd

Structure (SMILES) | IC50 (CYP26A (P450RAI-1)) [nM] | Kd (RAR α [1]) [nM] | RAR β (EFFICACY) (RAR β [2]) | RAR α (EFFICACY) (RAR α [3]) | IC50 (CYP26B (P450RAI-2)) [nM] | Kd (RAR β [4]) [nM] | Kd (RAR γ [5]) [nM] | RAR γ (EFFICACY) (RAR γ [6]) | EC50 (RAR β [2]) [nM] | EC50 (RAR α [3]) [nM] | EC50 (RAR γ [6]) [nM]
CC(C)c1cc(C(=O)Oc2ccc(/C=C/C(=O)O)cc2)cc2c1OC(C)(C)CC2(C)C [Compound 16, 8-Isopropyl-2,2,4,4-tetramethyl-chroman-6-carboxylic acid 4-(2-carboxy-vinyl)-phenyl ester] | 300 | 3080 | 35 | ~5 | > 10000 | 810 | > 10000 | ~5 |  |  | 
Cc1ccc(C(C)(C)C)cc1C#Cc1ccc(/C=C/C(=O)O)cc1 [Compound 36, 3-[4-(5-tert-Butyl-2-methyl-phenylethynyl)-phenyl]-acrylic acid] | > 10000 | > 10000 | 40 |  | 400 | 3520 | 2080 | 15 |  |  | 
CN(c1cccc(C#Cc2ccc(/C=C/C(=O)O)cc2)c1)C1CC1 [Compound 37, (E)-3-{4-[3-(Cyclopropyl-methyl-amino)-phenylethynyl]-phenyl}-acrylic acid] | > 10000 | > 10000 | 70 | 10 | 500 | 7020 | > 10000 | 15 |  |  | 
CC(C)OC(=O)c1ccc(C#Cc2ccc(CC(=O)O)cc2)cc1CN(C)C1CC1 [Compound 38, 4-(4-Carboxymethyl-phenylethynyl)-2-[(cyclopropyl-methyl-amino)-methyl]-benzoic acid isopropyl ester] | 4000 | > 10000 |  | 10 | > 10000 | > 10000 | > 10000 |  |  |  | 
C#Cc1c(C)c(C#Cc2ccc(CC(=O)O)cc2)cc(C(C)(C)C)c1OC(C)C [Compound 45, [4-(5-tert-Butyl-3-ethynyl-4-isopropoxy-2-methyl-phenylethynyl)-phenyl]-acetic acid] | 700 | 9.9 | 55 | 52 | > 10000 | 76 | 255 | 68 | 18 | 118 | 31
C=Cc1c(C)c(C#Cc2ccc(CC(=O)O)cc2)cc(C(C)(C)C)c1OC(C)C [Compound 46, [4-(5-tert-Butyl-4-isopropoxy-2-methyl-3-vinyl-phenylethynyl)-phenyl]-acetic acid] | 700 | 85 | 75 | 67 | > 10000 | 45 | 215 | 65 | 10 | 65 | 7
C#CCc1c(C)c(C#Cc2ccc(CC(=O)O)cc2)cc(C(C)(C)C)c1OC(C)C [Compound 47, [4-(5-tert-Butyl-4-isopropoxy-2-methyl-3-prop-2-ynyl-phenylethynyl)-phenyl]-acetic acid] | 100 | 2240 | 59 | 10 | 8800 | 4470 | 1950 | 66 | 38 |  | 125
CCOC(=O)C1=CCC(C)(C)c2cc(C#Cc3ccc(CC(=O)O)cc3)c(C)cc21 [Compound 55, 6-(4-Carboxymethyl-phenylethynyl)-4,4,7-trimethyl-3,4-dihydro-naphthalene-1-carboxylic acid ethyl ester] | 1400 | > 10000 | 35 |  | > 10000 | > 10000 | > 10000 | 30 |  |  | 
CCOC(=O)C1=CCC(C)(C)c2cc(C#Cc3ccc(CC(=O)O)c(F)c3)ccc21 [Compound 60, 6-(4-Carboxymethyl-3-fluoro-phenylethynyl)-4,4-dimethyl-3,4-dihydro-naphthalene-1-carboxylic acid ethyl ester] | 60 | 6320 | 60 |  | 2600 | 3960 | 8990 | 15 |  |  | 

Source: patent US7468391B2, “Methods for treating retinoid responsive disorders using selective inhibitors of CYP26A and CYP26B” (Allergan, Inc., priority 2003, dated 2008)
